# Assay results taken from patent publication EP1038880B1, “Androstanes and pregnanes for allosteric modulation of GABA receptor” (priority 1994, dated 1995).
# pIC50: −log10 of the molar value.
# Target: GR complex
# Test: [35S]TBPS binding assay (inhibition of [35S]TBPS binding, cerebral cortex P2 homogenate)
# Set-up: species or system rat
# Settings: for pIC50: 2 nM [35S]TBPS, rat cerebral cortex P2 homogenate; for IMAX: maximum inhibition of [35S]TBPS binding
# Procedure: We performed several experiments to determine the nature of the modulation of [^35S]TBPS as affected by the compounds of the invention.
# These procedures were performed as follows:
# Brains from male Sprague-Dawley rats were removed immediately following sacrifice and the cerebral cortices dissected over ice. […] Briefly, the cortices were gently homogenized in 0.32 M sucrose followed by centrifugation at 1000 x g for 10 minutes. The supernatant was collected and centrifuged at 9000 x g for 20 minutes. The resultant P2 pellet was suspended as a 10% (original wet weight/volume) suspension in 50 mM Na/K phosphate buffer (pH 7.4) 200 mM NaCl to form the homogenate.
# One hundred microliter […] aliquots of the P2 homogenate (0.5 milligrams (mg) protein) were incubated with 2 nanomolar (nM) [^35S]TBPS (70-110 curies/millimole; New England Nuclear, Boston, MA) in the presence or absence of the naturally occurring steroids or their synthetic derivatives to be tested. The tested compounds were dissolved in dimethylsulfoxide (Baker Chem. Co., Phillipsbury, NJ) and added to the incubation mixture in 5 µL aliquots. The incubation mixture was brought to a final volume of 1 mL with buffer. Non-specific binding was defined as binding in the presence of […] TBPS. The effect and specificity of GABA (Sigma Chem. Co., St. Louis, MO) was evaluated by performing all assays in the presence of GABA plus (+)bicuculline (Sigma Chem. Co.). maintained at 25°C for 90 minutes (steady state conditions) were terminated by rapid filtration through glass fiber filters (No. 32, Schleicher and Schuell, Keene, NH). Filter-bound radioactivity was quantitated by liquid scintillation spectrophotometry.
# Various compounds were screened to determine their potential as modulators of [^35S]TBPS binding in vitro. These assays were performed in accordance with the above discussed procedures. […] It is an indication of a compound's in vitro potency. Maximum inhibition is an indication of a compound's in vitro efficacy.
# [1] = listed as 3α-Hydroxy-3β-(3'-hydroxyphenyl)-ethynyl-5β-pregnan-20-one
smiles,measurement,setting,value
CC12CCC(O)CC1CCC1C2CCC2(C)C(C(=O)Cn3ccnc3C=O)CCC12 (stereo not drawn) [3α-hydroxy-21-[1H-(2'-formyl)imidazol-1-yl]-5-pregnan-20-one],pIC50,,6.67
same,IMAX,,81%
Cc1nccn1CC(=O)[C@H]1CC[C@H]2[C@@H]3CC[C@@H]4C[C@H](O)CC[C@]4(C)[C@H]3CC[C@]12C [3α-hydroxy-21-[1H-(2-methyl)imidazol-1-yl)-5β-pregnan-20-one],pIC50,,6.65
same,IMAX,,95%
"CC(=O)[C@H]1CC[C@H]2[C@@H]3CC[C@@H]4C[C@@](O)(C#Cc5ccc(F)cc5F)CC[C@]4(C)[C@H]3CC[C@]12C [3β-(2', 4'-difluorophenylethynyl)-3α-hydroxy-5β-pregnan-20-one]",pIC50,,6.96
same,IMAX,,102%
CC(=O)[C@H]1CC[C@H]2[C@@H]3CC[C@@H]4C[C@@](O)(CCc5ccccc5O)CC[C@]4(C)[C@H]3CC[C@]12C [3β-(2'-Hydroxyphenyl)ethyl-3α-hydroxy-5β-pregnan-20-one],pIC50,,7.00
same,IMAX,,83%
"COc1ccc(CC[C@@]2(O)CC[C@@]3(C)[C@H](CC[C@@H]4[C@@H]3CC[C@]3(C)[C@@H](C(C)=O)CC[C@@H]43)C2)cc1OC [3β-(3',4'-Dimethoxyphenylethyl)-3α-hydroxy-5β-pregnan-20-one]",pIC50,,6.29
same,IMAX,,66%
"COc1ccc(C#CC2(O)CCC3(C)C(CCC4C3CCC3(C)C(C(C)=O)CCC43)C2)cc1OC (stereo not drawn) [3β-(3',4'-Dimethoxyphenylethynyl)-3α-hydroxy-5β-pregnan-20-one]",IMAX,,106%
CC(=O)c1cccc(C#C[C@@]2(O)CC[C@@]3(C)[C@H](CC[C@@H]4[C@@H]3CC[C@]3(C)[C@@H](C(C)=O)CC[C@@H]43)C2)c1 [3β-(3'-Acetylphenylethynyl)-3α-hydroxy-5β-pregnan-20-one],pIC50,,7.21
same,IMAX,,100%
CC(=O)OCC#C[C@@]1(O)CC[C@@]2(C)[C@H](CC[C@@H]3[C@@H]2CC[C@]2(C)[C@@H](C(C)=O)CC[C@@H]32)C1 [3β-(3'-acetoxy-1'-propynyl)-3α-hydroxy-5β-pregnan-20-one],IMAX,,104%
CC(=O)[C@H]1CC[C@H]2[C@@H]3CC[C@@H]4C[C@@](O)(C#CCO)CC[C@]4(C)[C@H]3CC[C@]12C [3β-(3'-hydroxy-1'-propynyl)-3α-hydroxy-5β-pregnan-20-one],pIC50,,6.86
same,IMAX,,93%
CC(=O)[C@H]1CC[C@H]2[C@@H]3CC[C@@H]4C[C@@](O)(C#Cc5cccc(O)c5)CC[C@]4(C)[C@H]3CC[C@]12C [3β-(3'-hydroxyphenylethynyl)-3α-hydroxy-5β-pregnan-20-one],pIC50,,6.39
same,pIC50,[1],6.21
same,IMAX,,99%
same,IMAX,[1],98%
CC(=O)OCCC#CC1(O)CCC2(C)C(CCC3C2CCC2(C)C(C(C)=O)CCC32)C1 (stereo not drawn) [3β-(4'-Acetoxy-1'-butynyl)-3α-hydroxy-5β-pregnan-20-one],pIC50,,7.70
same,IMAX,,96%
CC(=O)Oc1ccc(C#C[C@@]2(O)CC[C@@]3(C)[C@H](CC[C@@H]4[C@@H]3CC[C@]3(C)[C@@H](C(C)=O)CC[C@@H]43)C2)cc1 [3β-(4'-Acetoxyphenylethynyl)-3α-hydroxy-5β-pregnan-20-one],pIC50,,5.84
same,IMAX,,100%
CC(=O)c1ccc(C#CC2(O)CCC3C(CCC4C3CCC3(C)C(C(C)=O)CCC43)C2)cc1 (stereo not drawn) [3β-(4'-Acetylphenyl)ethynyl-3α-hydroxy-5β-19-norpregnan-20-o] [3β-(4'-Acetylphenylethynyl)-3α-hydroxy-19-nor-5β-pregnan-20-one],pIC50,,8.22
same,IMAX,,90%
CC(=O)c1ccc(C#CC2(O)CCC3C(CCC4C3CCC3(C)C(C(C)=O)CCC43)C2)cc1 (stereo not drawn) [3β-(4'-Acetylphenyl)ethynyl-3α-hydroxy-19-nor-20-one],pIC50,,7.85
same,IMAX,,103%
CC(=O)c1ccc(C#C[C@@]2(O)CC[C@@]3(C)[C@@H](CC[C@@H]4[C@@H]3CC[C@]3(C)[C@@H](C(C)=O)CC[C@@H]43)C2)cc1 [3β-(4'-Acetylphenylethynyl)-3α-hydroxy-5α-pregnan-20-one],pIC50,,8.30
same,IMAX,,93%
CC(=O)[C@H]1CC[C@H]2[C@@H]3CC[C@@H]4C[C@@](O)(C#CCCC(N)=O)CC[C@]4(C)[C@H]3CC[C@]12C [3β-(4'-Carboxamidobutynyl)-3α-hydroxy-5β-pregnan-20-one],pIC50,,5.63
same,IMAX,,102%
CC(=O)[C@H]1CC[C@H]2[C@@H]3CC[C@@H]4C[C@@](O)(C#Cc5ccc(C(N)=O)cc5)CC[C@]4(C)[C@H]3CC[C@]12C [3β-(4'-Carboxamidopheny)ethynyl-3α-hydroxy-5β-pregnan-20-one],pIC50,,5.65
same,IMAX,,98%
CCOC(=O)c1ccc(C#CC2(O)CCC3(C)C(CCC4C3CCC3(C)C(C(C)=O)CCC43)C2)cc1 (stereo not drawn) [3β-(4'-Carboxyphenylethynyl)-3α-hydroxy-5α-pregnan-20-one ethyl ester],pIC50,,8.15
same,IMAX,,79%
CCOC(=O)c1ccc(C#CC2(O)CCC3C(CCC4C3CCC3(C)C(C(C)=O)CCC43)C2)cc1 (stereo not drawn) [3β-(4'-Carboxyphenylethynyl)-3α-hydroxy-19-nor-5β-pregnan-20-one ethyl ester],pIC50,,7.82
same,IMAX,,94%
"CC(=O)[C@H]1CC[C@H]2[C@@H]3CC[C@@H]4C[C@@](O)(C#CCCO)CC[C@]4(C)[C@H]3C(=O)C[C@]12C [3β-(4'-Hydroxy-1'-butynyl)-3α-hydroxy-5β-pregnan-11,20-dione]",pIC50,,6.57
same,IMAX,,102%
CC(=O)C1CCC2C3CCC4CC(O)(C#Cc5ccc(O)cc5)CCC4(C)C3CCC12C (stereo not drawn) [3β-(4'-Hydroxyphenylethynyl)-3α-hydroxy-5β-pregnan-20-one],pIC50,,5.81
same,IMAX,,88%
CC(=O)[C@H]1CC[C@H]2[C@@H]3CC[C@@H]4C[C@@](O)(C#Cc5ccc([N+](=O)[O-])cc5)CC[C@]4(C)[C@H]3CC[C@]12C [3β-(4'-Nitrophenylethynyl)-3α-hydroxy-5β-pregnan-20-one],pIC50,,7.34
same,IMAX,,103%
CC(=O)[C@H]1CC[C@H]2[C@@H]3CC[C@@H]4C[C@@](O)(C#Cc5ccc(Cl)cc5)CC[C@]4(C)[C@H]3CC[C@]12C [3β-(4'-chlorophenylethynyl)-3α-hydroxy-5β-pregnan-20-one],pIC50,,7.24
same,IMAX,,89%
CC(=O)[C@H]1CC[C@H]2[C@@H]3CC[C@@H]4C[C@@](O)(C#Cc5ccc(N(C)C)cc5)CC[C@]4(C)[C@H]3CC[C@]12C [3β-(4'-dimethylaminophenyl)ethynyl-3α-hydroxy-5β-pregnan-20-one],pIC50,,7.55
same,IMAX,,77%
CC(=O)C1CCC2C3CCC4CC(O)(C#CCCO)CCC4C3CCC12C (stereo not drawn) [3β-(4'-hydroxy-1'-butynyl)-3α-hydroxy-5β-19-norpregnan-20-one],pIC50,,7.66
same,IMAX,,102%
CC(=O)[C@H]1CC[C@H]2[C@@H]3CC[C@@H]4C[C@@](O)(C#CCCO)CC[C@]4(C)[C@H]3CC[C@]12C [3β-(4'-hydroxy-1'-butynyl)-3α-hydroxy-5β-pregnan-20-one],pIC50,,7.89
same,IMAX,,103%
CC(=O)C1CCC2C3CCC4CC(O)(C#CCCO)CCC4(C)C3CCC12C (stereo not drawn) [3β-(4'-hydroxybutynyl)-3α-hydroxy-5α-pregnan-20-one],IMAX,,95%
COc1ccc(C#CC2(O)CCC3(C)C(CCC4C3CCC3(C)C(C(C)=O)CCC43)C2)cc1 (stereo not drawn) [3β-(4'-methoxyphenylethynyl)-3α-hydroxy-5β-pregnan-20-one],pIC50,,7.33
same,IMAX,,89%
CC(=O)[C@H]1CC[C@H]2[C@@H]3CC[C@@H]4C[C@@](O)(C#CCCC#N)CC[C@]4(C)[C@H]3CC[C@]12C [3β-(4-cyano-1-butynyl)-3α-hydroxy-5β-pregnan-20-one],pIC50,,6.88
same,IMAX,,86%
CC(=O)[C@H]1CC[C@H]2[C@@H]3CC[C@@H]4C[C@@](O)(C#CCCCC(N)=O)CC[C@]4(C)[C@H]3CC[C@]12C [3β-(5'-Carboxamidopentynyl)-3α-hydroxy-5β-pregnan-20-one],pIC50,,5.51
same,IMAX,,102%
CC(=O)OCCCCC#C[C@@]1(O)CC[C@@]2(C)[C@H](CC[C@@H]3[C@@H]2CC[C@]2(C)[C@@H](C(C)=O)CC[C@@H]32)C1 [3β-(6'Acetoxy-1'-hexynyl)-3α-hydroxy-5β-pregnan-20-one],pIC50,,6.51
same,IMAX,,99%
CC(=O)[C@H]1CC[C@H]2[C@@H]3CC[C@@H]4C[C@@](O)(C#CCCCCO)CC[C@]4(C)[C@H]3CC[C@]12C [3β-(6-hydroxy-1-hexynyl)-3α-hydroxy-5β-pregnan-20-one],pIC50,,6.65
same,IMAX,,99%
CC(=O)[C@H]1CC[C@H]2[C@@H]3CC[C@@H]4C[C@@](O)(C#Cc5c(F)c(F)c(F)c(F)c5F)CC[C@]4(C)[C@H]3CC[C@]12C [3β-(pentafluorophenylethynyl)-3α-hydroxy-5β-pregnan-20-one],pIC50,,7.10
same,IMAX,,69%
